Test results reported in paper PMC11480511 (Scientific Reports, 2024).

Assays:
MCF7 = test: NCI single-dose growth inhibition screen; format: cell-based, human; details: single dose 10^−5 M
[1] = system: P. aeruginosa ATCC 27,853; test: Antibacterial screening, agar cup diffusion method; format: cell-based; details: Pseudomonas aeruginosa, ATCC27; Gram –ve strain; read-out: Minimum inhibitory concentrations (MIC, µM) P. aeruginosa ATCC 27,853
LOX IMVI = test: NCI single-dose growth inhibition screen; format: cell-based, human; details: Melanoma LOX IMVI, single dose 10^−5 M
human melanoma LOX IMVI = test: cells
HL-60(TB) = test: NCI single-dose growth inhibition screen; format: cell-based; details: Homo sapiens; Leukemia HL-60(TB); single dose 10^−5 M
SN12C = test: NCI single-dose growth inhibition screen; format: cell-based; details: Homo sapiens; Renal Cancer SN12C; single dose 10^−5 M
OVCAR-8 = test: NCI single-dose growth inhibition screen; format: cell-based; details: Homo sapiens; Ovarian Cancer OVCAR-8; single dose 10^−5 M
A549/ATCC = test: NCI single-dose growth inhibition screen; format: cell-based; details: Homo sapiens; Non-Small Cell Lung Cancer A549/ATCC; single dose 10^−5 M
MDA-MB-468 = test: NCI single-dose growth inhibition screen; format: cell-based; details: Homo sapiens; Breast Cancer MDA-MB-468; single dose 10^−5 M
RXF 393 = test: NCI single-dose growth inhibition screen; format: cell-based; details: Homo sapiens; Renal Cancer RXF 393; single dose 10^−5 M
MDA-MB231 = test: NCI single-dose growth inhibition screen; format: cell-based; details: Homo sapiens, MDA-MB-231; Breast Cancer MDA-MB231; single dose 10^−5 M
[2] = system: K. pneumoniae ATCC 10,031; test: Antibacterial screening, agar cup diffusion method; format: cell-based; details: Klebsiella pneumoniae, ATCC10, Gram –ve strain; read-out: Minimum inhibitory concentrations (MIC, µM) K. pneumoniae ATCC 10,031
Experimental: Anti-bacterial activity of the recently synthesized compounds 3a-k was evaluated at AUMC (Assiut University Mycological Centre), Assiut, Egypt. Assays were done against Gram-negative strains of K. pneumoniae (ATCC 100310, E. coli (ATCC 25922), Pseudomonas aeruginosa (ATCC 27853) and the Gram-positive S. aureus (ATCC 6538) strain utilizing standard agar cup diffusion method. The isolates from the four bacterial species examined were kept in TSB (Trypticase Soya Broth, Becton and Dickinson) with 10% glycerol at -70 °C and then subcultured on TSA (Trypticase Soya Agar, Becton and Dickinson) and TSB for 24 h at 37 °C former to inoculation. Bacterial isolates were then plated on sterile petri plates with 1 × 10^8 CFU/mL (0.5 McFarland turbidity) and 20 mL of Mueller Hinton Agar media (Oxoid) was then loaded. To ensure that the microorganisms were evenly dispersed, the plates were gently rotated before being left to harden on a level surface. Four equally spaced spherical-shaped wells (10 mm diameter) were painstakingly drilled using a sterilized cork bore after media solidification. All tested compounds under test underwent two-fold serial dilutions in a sequential manner. Three replications of 100 µL of each concentration were added to a well using a micropipette. Plates were then incubated for 24-hour at 37 °C. The average of the inhibition zones was then calculated. To determine the MICs, the natural logarithm of each diluted test substance’s concentration was plotted against the average area of the related inhibition zone. Following that, a regression line was created and the intercept on the ‘ln concentration” axis was determined, and the antilogarithm was calculated to indicate the MIC value[34],[63].

CCRF-CEM = test: NCI single-dose growth inhibition screen; format: cell-based; details: Homo sapiens; Leukemia CCRF-CEM; single dose 10^−5 M
NCI-H23 = test: NCI single-dose growth inhibition screen; format: cell-based; details: Homo sapiens; Non-Small Cell Lung Cancer NCI-H23; single dose 10^−5 M
ACHN = test: NCI single-dose growth inhibition screen; format: cell-based; details: Homo sapiens; Renal Cancer ACHN; single dose 10^−5 M
EKVX = test: NCI single-dose growth inhibition screen; format: cell-based; details: Homo sapiens; Non-Small Cell Lung Cancer EKVX; single dose 10^−5 M
NCI-H322M = test: NCI single-dose growth inhibition screen; format: cell-based; details: Homo sapiens; Non-Small Cell Lung Cancer NCI-H322M; single dose 10^−5 M
topoisomerase IIβ = target: T1, topoisomerase IIβ (Homo sapiens, UniProt Q02880); test: Topoisomerase II inhibition, human DNA topoisomerase Elisa kit; format: biochemical; details: ± SEM; read-out: Topoisomerase II IC50 µM ± SEM
T1 construct: purchased

786-0 = test: NCI single-dose growth inhibition screen; format: cell-based; details: Homo sapiens; Renal Cancer 786-0; single dose 10^−5 M
SK-MEL-5 = test: NCI single-dose growth inhibition screen; format: cell-based, human; details: single dose 10^−5 M
K-562 = test: NCI single-dose growth inhibition screen; format: cell-based; details: Homo sapiens, K562; Leukemia K-562; single dose 10^−5 M

T1 sequence (Q02880 whole entry): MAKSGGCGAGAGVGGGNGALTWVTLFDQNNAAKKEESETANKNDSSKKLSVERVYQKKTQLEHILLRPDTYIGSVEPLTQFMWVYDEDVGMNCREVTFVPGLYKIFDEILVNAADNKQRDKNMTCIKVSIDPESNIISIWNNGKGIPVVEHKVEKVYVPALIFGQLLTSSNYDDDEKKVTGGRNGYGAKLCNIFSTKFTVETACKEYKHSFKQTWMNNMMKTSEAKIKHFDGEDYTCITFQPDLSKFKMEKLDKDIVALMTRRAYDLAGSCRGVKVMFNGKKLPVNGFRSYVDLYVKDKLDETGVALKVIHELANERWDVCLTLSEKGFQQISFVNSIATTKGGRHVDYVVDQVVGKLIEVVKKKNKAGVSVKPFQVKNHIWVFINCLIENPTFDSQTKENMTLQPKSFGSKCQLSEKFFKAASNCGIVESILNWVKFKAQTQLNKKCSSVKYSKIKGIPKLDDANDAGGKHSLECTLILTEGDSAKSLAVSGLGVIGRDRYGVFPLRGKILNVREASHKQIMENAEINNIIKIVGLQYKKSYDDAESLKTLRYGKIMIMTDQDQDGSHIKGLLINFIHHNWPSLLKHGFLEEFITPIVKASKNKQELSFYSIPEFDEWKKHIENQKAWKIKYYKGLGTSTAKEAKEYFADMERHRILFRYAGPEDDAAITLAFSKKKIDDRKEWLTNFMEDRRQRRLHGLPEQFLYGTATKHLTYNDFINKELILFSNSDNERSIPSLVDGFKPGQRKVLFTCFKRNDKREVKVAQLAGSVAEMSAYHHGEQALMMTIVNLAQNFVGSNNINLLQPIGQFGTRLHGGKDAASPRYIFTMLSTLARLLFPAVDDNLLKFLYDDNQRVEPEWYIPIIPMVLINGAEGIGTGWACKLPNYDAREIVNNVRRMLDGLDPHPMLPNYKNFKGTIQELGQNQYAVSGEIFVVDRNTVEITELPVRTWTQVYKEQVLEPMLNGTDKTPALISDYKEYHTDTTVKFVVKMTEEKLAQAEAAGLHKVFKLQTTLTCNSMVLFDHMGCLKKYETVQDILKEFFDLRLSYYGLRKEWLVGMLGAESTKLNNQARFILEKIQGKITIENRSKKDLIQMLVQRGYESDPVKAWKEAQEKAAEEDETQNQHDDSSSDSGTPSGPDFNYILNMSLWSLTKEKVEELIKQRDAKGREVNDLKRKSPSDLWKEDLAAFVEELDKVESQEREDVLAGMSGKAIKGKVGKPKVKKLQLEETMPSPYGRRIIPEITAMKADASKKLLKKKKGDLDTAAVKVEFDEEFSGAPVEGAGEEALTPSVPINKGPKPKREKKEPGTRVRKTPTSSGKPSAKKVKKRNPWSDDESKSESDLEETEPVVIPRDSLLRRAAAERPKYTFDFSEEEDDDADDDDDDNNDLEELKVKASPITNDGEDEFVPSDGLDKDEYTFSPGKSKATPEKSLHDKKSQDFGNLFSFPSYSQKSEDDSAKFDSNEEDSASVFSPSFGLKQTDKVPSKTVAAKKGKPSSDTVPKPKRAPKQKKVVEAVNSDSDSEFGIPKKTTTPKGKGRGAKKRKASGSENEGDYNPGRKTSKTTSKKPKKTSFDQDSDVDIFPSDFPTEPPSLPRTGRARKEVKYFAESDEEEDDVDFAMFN

O=C(O)c1cn(C2CC2)c2cc(N3CCN(C(=O)CCCN4C(=O)SC(=Cc5cccc6ccccc56)C4=O)CC3)c(F)cc2c1=O [3j, 1-cyclopropyl-6-fluoro-7-[4-[4-[5-(1-naphthylmethylene)-2,4-dioxo-thiazolidin-3-yl]butanoyl]piperazin-1-yl]-4-oxo-quinoline-3-carboxylic acid]
Growth Inhibition (%) (MCF7; Breast Cancer MCF7): 41.7% | inhibition at 10 µM (MCF7; Homo sapiens, MCF7, Breast Cancer MCF7): 41.7% | MIC [1]: > 20 µM | inhibition at 10 µM (LOX IMVI; Homo sapiens, LOX IMVI): 38.5% | Growth Inhibition (%) (LOX IMVI): 38.5% | viability at 0.4 µM (human melanoma LOX IMVI): 86.5% | viability at 1.6 µM (human melanoma LOX IMVI): 79.4% | viability at 25 µM (human melanoma LOX IMVI): 61.5% | viability at 100 µM (human melanoma LOX IMVI): 48.5% | IC50 (human melanoma LOX IMVI; read-out: In vitro cytotoxicity (IC50) LOX IMVI (µM ± SEM)): 110 ± 6.23 µM | inhibition at 10 µM (HL-60(TB)): < 0% | inhibition at 10 µM (SN12C): 24.1% | inhibition at 10 µM (OVCAR-8): 9% | inhibition at 10 µM (A549/ATCC): 9.3% | inhibition at 10 µM (MDA-MB-468): 4.7% | inhibition at 10 µM (RXF 393): 11.2% | inhibition at 10 µM (MDA-MB231): 25.2% | MIC [2]: > 20 µM | inhibition at 10 µM (CCRF-CEM): < 0% | inhibition at 10 µM (NCI-H23): 13.1% | inhibition at 10 µM (ACHN): 11.5% | inhibition at 10 µM (EKVX): 9.1% | inhibition at 10 µM (NCI-H322M): 26.6% | IC50 (topoisomerase IIβ): 39.8 ± 2.17 µM | inhibition at 10 µM (786-0): 18.5% | inhibition at 10 µM (SK-MEL-5; Homo sapiens, SK-MEL-5, Melanoma SK-MEL-5): 46.1% | Growth Inhibition (%) (SK-MEL-5; Melanoma SK-MEL-5): 46.1% | inhibition at 10 µM (K-562): 10.9%
